{"source": "patent US20210386761A1", "about": "“COMPOSITION FOR PREVENTING OR TREATING INFLAMMATORY BOWEL DISEASE, CONTAINING, AS ACTIVE INGREDIENT, TAURODEOXYCHOLIC ACID OR PHARMACEUTICALLY ACCEPTABLE SALT THEREOF” (SHAPERON INC., priority 2019, published 2021)", "key": {"[1]": {"system": "IL-1β", "test": "Pro-inflammatory cytokine ELISA of colon tissue, IL-1β", "type": "in vivo, mouse", "conditions": "for IL-1β in the colon tissue: Day 7", "protocol": "(§1) In order to evaluate the clinical symptoms-improving efficacy in comparison with those by clinical prescription drugs, inflammatory bowel disease was induced by 7-day or repeated administration of 3% or 2.5% DSS solution, and tofacitinib 10 mg/kg, 5-ASA 100 mg/kg or 200 mg/kg, prednisolone 1 mg/kg, and TDCA 2.5 mg/kg were administered one time a day from the start date of DSS administration. From the start date of DSS administration, TDCA 2.5 mg/kg was administered one time a day (QD), two times a day (BID), and three times a day (TID).\nA colon was obtained from a mouse which had been subjected to an experiment by the same method as that described in <Example 2>, the peripheral colon was cut into 2 cm in length and the weight was recorded. Next, the colon was chopped into 1 mm pieces and frozen on ice, treated with 500 μl of cold DPBS containing protease inhibitor (Roche, 11836170001, Basel, Switzerland), and homogenized for 10 to 20 seconds using an electric homogenizer (IKA T10 Basic, Wilmington, SE, USA). The homogenate was centrifuged at 4° C. for 10 minutes at 12,000×g to obtain a supernatant. ELISA analysis was performed using the obtained supernatant, IL-6 DuoSet ELISA kit (R & D systems, USA), IL-1β DuoSet ELISA kit (R & D systems, USA), and TNF-α DuoSet ELISA kit (R & D systems, USA) according to the manufacturer's procedure to confirm the production of pro-inflammatory cytokines.\n(§2) Specifically, female C57BL/6 mice were fed with a 2% DSS solution together with drinking water for 7 days from Day 0 of the experiment by the same method as that described in <Example 1>, DPBS or 5 mg/kg TDCA was administered to the mice by oral gavage one time a day for 6 days from Day 1 of the experiment, and the body weight and DAI were measured daily. As a control, mice freely fed with drinking water were used. Next, the mice were sacrificed on Day 7 of the experiment by the same method as that described in <Example 3>, and inflammatory cell and proinflammatory cytokine analysis was performed.\nas §2, with “oral gavage from Day” for “oral gavage one time a day for 6 days from Day”, “1 of DSS administration or 2 days before DSS administration, and the” for “1 of the experiment, and the”, “3>, and the inflammatory cell” for “3>, and inflammatory cell”"}, "[2]": {"system": "TGR5 knockout (TGR5−/−) inflammatory bowel disease-induced mouse model", "test": "Clinical symptom analysis in DSS-induced TGR5 knock-out (TGR5−/−) mouse model", "type": "in vivo", "conditions": "TGR5−/− mice, 2% DSS 10 days", "protocol": "(§3) The disease activity indexes (DAI) including body weight, body weight loss, stool consistency, and bloody stool were measured daily. DAI was scored according to the following [Table 1].\nSpecifically, C57BL/6-Gpbar1^tm1(KOMP)Vlcg mice (TGR5 KO, KOMP Repository, The Knockout Mouse Project, University of California, Davis, Calif.) were used as TGR5 knockout (TGR5^−/−) female C57BL/6 mice. The TGR5^−/− female C57BL/6 mice or TGR5 normal (WT) female C57BL/6 mice were fed with a 2% DSS solution or DPBS together with drinking water for 10 days from Day 0 of the experiment by the same method as that described in <Example 1>. DPBS or 5 mg/kg TDCA was administered to the mice by oral gavage one time a day for 11 days from Day 1 of the experiment, and the body weight and DAI were measured daily. As a control, mice freely fed with drinking water were used."}, "[3]": {"system": "inflammatory bowel disease induced by 3% DSS administration for 7 days", "test": "3% DSS 7-day inflammatory bowel disease model, comparison with clinical prescription drugs", "type": "in vivo, mouse", "conditions": "3% DSS 7 days", "protocol": "as §1, §3\nAfter the experiment was completed, the mice were euthanized with CO2 and the bowels were excised. Next, the bowels were put in cold 1×DPBS and the remaining mesenteric adipose tissue was isolated. At this time, the colon length was measured. Next, the tail end of the colon was opened and wound up with scissors to obtain colon tissue. The obtained colon tissue was fixed in 10% neutral buffered formalin (Sigma-Aldrich, HT501128-4L, St. Louis, Mo., USA) at room temperature for 48 hours and then treated in a tissue processor (Excelsior ES, Thermo scientific, Waltham, Mass., USA) for 12 hours. The processed tissue was sectioned and paraffinized using a microtome (Microm, HM 340E, Thermo Scientific, Waltham, Mass., USA) and an embedding system (HistoStar, Thermo Scientific, Waltham, Mass., USA). Next, the processed tissue was stained with hematoxylin and eosin, and visualized under an optical microscope (Motic, BA310, Redding, Calif., USA) to confirm the histopathological state, and the histopathological state was scored to histological score according to the criteria in the following [Table 2]."}}, "data": [{"smiles": "C[C@H](CCC(=O)NCCS(=O)(=O)O)[C@H]1CC[C@H]2[C@@H]3CC[C@@H]4C[C@H](O)CC[C@]4(C)[C@H]3C[C@H](O)[C@]12C", "note": "[TDCA, sodium taurodeoxycholic acid]", "values": [{"measurement": "IL-1β in the colon tissue", "setting": "[1]; 2% DSS 7 days, 5 mg/kg TDCA oral gavage, FIG. 3B", "result": "decreased"}, {"measurement": "concentration of IL-1β in the colon tissue, compared with clinical prescription drugs", "setting": "[1]; 3% DSS 7 days, TDCA 2.5 mg/kg vs tofacitinib 10 mg/kg and 5-ASA 100 mg/kg", "result": "more effectively suppressed the concentration of IL-1β than tofacitinib 10 mg/kg and 5-ASA 100 mg/kg"}, {"measurement": "IL-1β in the colon tissue", "setting": "[1]; DSS+TDCA group: 5 mg/kg TDCA from Day 1 of DSS, FIG. 7B", "result": "decreased"}, {"measurement": "IL-1β in the colon tissue", "setting": "[1]; DSS+preTDCA group: 5 mg/kg TDCA from 2 days before DSS, FIG. 7B", "result": "decreased"}, {"measurement": "initial body weight lost on Day 10", "setting": "[2]; 5 mg/kg TDCA oral gavage one time a day, FIG. 8A", "result": "about 27%"}, {"measurement": "DAI change", "setting": "[2]; 5 mg/kg TDCA, FIG. 8B", "result": "DAI was high"}, {"measurement": "survival rate", "setting": "[2]; 5 mg/kg TDCA, FIG. 8C", "result": 60, "unit": "%"}, {"measurement": "body weight change, compared with clinical prescription drugs", "setting": "[3]; TDCA 2.5 mg/kg one time a day vs tofacitinib 10 mg/kg and 5-ASA 100 mg/kg, FIG. 9A", "result": "effect equivalent to those by tofacitinib 10 mg/kg and 5-ASA 100 mg/kg"}, {"measurement": "DAI change, compared with clinical prescription drugs", "setting": "[3]; TDCA 2.5 mg/kg one time a day vs tofacitinib 10 mg/kg and 5-ASA 100 mg/kg, FIG. 9B", "result": "effect equivalent to those by tofacitinib 10 mg/kg and 5-ASA 100 mg/kg"}, {"measurement": "colon length, compared with clinical prescription drugs", "setting": "[3]; TDCA 2.5 mg/kg vs tofacitinib 10 mg/kg and 5-ASA 100 mg/kg, FIG. 9C", "result": "effect equivalent to those by tofacitinib 10 mg/kg and 5-ASA 100 mg/kg"}, {"measurement": "histological lesion index, compared with clinical prescription drugs", "setting": "[3]; TDCA 2.5 mg/kg vs tofacitinib 10 mg/kg and 5-ASA 100 mg/kg, FIG. 9D", "result": "effect equivalent to those by tofacitinib 10 mg/kg and 5-ASA 100 mg/kg"}]}]}
